The record followed here is article PMC9229894, “In Silico, In Vitro, and Pharmacokinetic Studies of UBMC-4, a Potential Novel Compound for Treating against Trypanosoma cruzi” (Pathogens, 2022).

One series relates to T. cruzi epimastigotes. As to the kind of experiment: Scanning and transmission electron microscopy of epimastigotes under nutritional stress. The class given is cell-based, Trypanosoma cruzi. The settings on record: 10 µM, nutritional stress (PBS) 6 h. The protocol: Epimastigotes untreated and treated with 10 uM of UBMC-4 under nutritional stress conditions (culture medium substitution for PBS for 6 h) were fixed for 2 h using 2.5% glutaraldehyde in cacodylate buffer 0.1 M. Parasites adhered for 10 min onto coverslips previously coated with 0.1% poly-L-lysin and subsequently washed with cacodylate buffer and dehydrated using 30%, 50%, 70%, and 90% (v/v) acetone for 5 min on each incubation. Subsequently, the cells were critically dried under CO2 and attached to the heel of the SEM instrument. Finally, samples were coated with a 20 nm-thick gold layer and analyzed in a Jeol JSM6010Plus-LA scanning electron microscope at 20 kV. For TEM, parasites were fixed for 2 h with glutaraldehyde and cacodylate buffer and then treated for 1 h with 1% OsO4 diluted in the same buffer. Parasites were dehydrated as above and then embedded in PolyBed-812 resin. Ultrathin sections were collected in copper grids and stained with 5% aqueous uranyl acetate and lead citrate. Samples were examined in a Jeol JEM-1400plus transmission electron microscope at 80 kV.

Series [1] in a line: Cytotoxicity, MTT method, CaCo2. The series is classed as cell-based. The settings on record: human, Caco-2, read-out: LC50 median lethal concentration CaCo2. The protocol:
(§1) Cytotoxicity of UBMC-4 was tested in HepG2, CaCo2, and huMDM cell lines according to the effect on cell growth determined by the MTT microenzimatic method, as described by others. Briefly, 2.0 × 10^4 U-937 and huMDM or 2.5 × 10^4 HepG2 and CaCo2 cells were dispensed in 200 µL into each well of a 96-well tissue culture plate containing the corresponding culture medium. Then, 100 µL/well of each compound at a concentration of […] were added and plates were incubated at 37 °C, 5% CO2. After 72 h of incubation, 20 μL of MTT (Sigma-Aldrich, St Louis, MO, USA) were added to each well and plates were incubated for 3 h at 37 °C, 5% CO2. […] The concentration of formazan was determined at 570 nm in a spectrophotometer (Varioskan Flash Multimode Reader, Thermo Scientific, Waltham, MA, USA). […] Cytotoxicity was determined according to the percentages of viability and cell growth inhibition obtained for each compound, bz, doxorubicin, or medium alone. Non-specific absorbance was corrected by subtracting the OD of the blank (culture medium). Percentages of mortality were calculated using equation, as follows: % mortality = 100 − [(O.D. of treated cells)/(O.D. of non-treated cells)] × 100. The half maximal effective concentration (EC50) was calculated by the linear regression model Probit using Graphpad Prism software.
For orientation: Tetrazolium dyes change colour on reduction, which living cells bring about.

Another series deals with T. cruzi trypomastigotes. As to the kind of experiment: Morphological changes of trypomastigotes incubated with UBMC-4 (data not shown). The class given is cell-based, Trypanosoma cruzi. Conditions: 10 µM.
Series [2] in a line: Cytotoxicity, MTT method, huMDM. The class given is cell-based. The settings on record: human, monocyte-derived macrophages (huMDM), read-out: LC50 median lethal concentration huMDM. The protocol:
as §1

In series [3] the test system is T. cruzi Tulahuen strain amastigotes. As to the kind of experiment: Trypanocidal activity in intracellular amastigotes (β-galactosidase, U937 macrophages). The class given is cell-based, Trypanosoma cruzi. The settings on record: Trypanosoma cruzi. As to the method:
To obtain intracellular amastigotes, 2.5 × 10^6 U937 differentiated macrophage cells were infected with T. cruzi epimastigotes (Tulahuen strain producing β-galactosidase, 24 h of growing) in a 5:1 parasite/cell ratio. To calculate EC50, 100 μL of UBMC-4 were added at four serial dilutions ([…]) to each well, and benznidazole (bz) was added at an initial concentration of 20 µg/mL and 6 serial 2-fold dilutions were used to determine its EC50 as a control of the effectiveness of the experiment, in addition to the control of the viability of the parasites (cells without drug treatment), from the blank of the culture medium (medium without cells), in duplicate. The cells were incubated for 72 h at 37 °C with 5% of CO2. All medium was removed and 100 µL of substrate for β-galactosidase diluted in PBS (chlorophenol β-d-galactopyranoside-CPRG network; Sigma-Aldrich, St Louis, MO, USA, at 100 mM and 0.1% Nonidet P-40) was added to each well and incubated at 37 °C for 3 h. The amount of chlorophenol red released was read at 570 nm in a spectrophotometer (Varioskan TM). Infected cells were used as negative control while infected cells treated with benznidazole were used as a positive control (trypanocidal activity) for the assay. RPMI-1640 medium was used as a negative control. Non-specific absorbance was corrected by subtracting the OD of the blank sample. Determinations were done in triplicate in at least two independent experiments.
The trypanocidal activity was determined based on the percentage of decrease of amastigotes determined using equation, as follows: % reduction of infection = 100 − (O.D. of treated infected cells)/(O.D. of non-treated infected cells) × 100. The half maximal effective concentration (EC50) was calculated by the linear regression model Probit using Graphpad Prism software.

A short description of series [4]: Toxicity / tolerability in mice. The class given is in vivo.
A short description of series [5]: Cytotoxicity, MTT method, HepG2. The class given is cell-based. The settings on record: human, HepG2 cells, read-out: LC50 median lethal concentration HepG2. As to the method: as §1
A short description of the next series: Solubility remark. The series is classed as physicochemical.

“Also recorded” adds a separate entry of the source. Where two headings read alike, the source gives them in different places. A value given as a limit tells only on which side of the number the result lay.

As for `Oc1ccc(-c2nc(-c3ccc4sc5ccccc5c4c3)c(-c3ccccc3)[nH]2)cc1` [UBMC-4, 4-(4-dibenzo-[b,d]-thien-2-yl-5-phenyl-1H-imidazol-2-yl)phenol], the “morphology and ultra-structure changes (SEM, TEM)” value in the series with T. cruzi epimastigotes is recorded as “progressive alterations such as flagellum inactivation, cell size reduction, nuclear structure alteration, condensation of chromatin towards the nuclear periphery, vacuole formation, mitochondrial swelling with kinetoplast integrity loss; also recorded: non-reversible morphological damage”. Besides, the CC50 at 72 h in series [1], in series [2] and in series [5] was > 40 µM each time. Besides, the “morphological changes of trypomastigotes” value with T. cruzi trypomastigotes is “much faster progressive morphological changes within the hour”. Also, the EC50 in series [3] (TULAHUEN, U-937, 72 h, read-out: EC50 half maximal effective concentration for T. cruzi amastigotes) amounted to 1.85 ± 1 µM; in series [3] (U-937, intracellular amastigotes, Tulahuen strain, same value in mass units, read-out: EC50 for T. cruzi amastigotes) it was 0.774 µg/mL. For the same compound, the “tolerability in preliminary toxicity study” value in series [4] (200 mg/kg administered once and 100 mg/kg every 24 h for 30 days) is “significant tolerability”. Moreover, in series [4] (mice of the pharmacokinetic assay, 200 mg/kg oral single dose), the acute toxicity entry is “did not exhibit acute toxicity”. Moreover, the death of mice result in series [4] (mouse, in vivo, po, 200 mg/kg) is on record as “did not cause death to any of the mice”. Besides, in the series “Solubility remark”, the solubility entry was “slight solubility problems”.
